The subject of assay [1] is HepG2 cells. In words: MTS cell proliferation assay, HepG2. It is filed as cell-based, human. To be noted: Homo sapiens, MTS. In short, it runs like this:
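MTS read-out (OD490, 3 h with PMS) after 3, 6, 12, 18 or 24 h exposure to 0.1–100 µM compound; HepG2 and MDA-MB-231 at 5×10^3 cells/well, human and rat hepatocytes at 1×10^4 cells/well, triplicate.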
A general note: Tetrazolium assays rely on reduction of a dye to a coloured formazan, in cell work by metabolically active cells.

For a further assay, the system named is MDA-MB-231 cells. In words: MTS cell proliferation assay, MDA-MB-231. It is filed as cell-based, human. As to conditions: Homo sapiens, MTS. As for the experimental part:
(§1) Cell viability was determined by using the MTS assay. In brief, HepG2 cells (5×10^3 cells/100 µL/well), MDA-MB-231 (5×10^3 cells/100 µL/well), THP-1 (25×10^3/100 µL/well), normal human and rat hepatocytes (1×10^4 cells/100 µL/well) were plated in triplicate, in a 96 well sterile flat bottom tissue culture plates. […] Thereby, cells were exposed to various concentrations (0.1, 1, 10, 25, 50, 75, 100 µM) of each treatment. Controls consist of cells with media containing DMSO (<0.5%), test blank wells contained the test compound in media with no cells and blank wells contained media with no cells. After additional 3, 6, 12, 18 or 24 h, 20 µL of the MTS reagent in combination with the electron coupling agent, phenazine methosulfate were added to the wells and cells were incubated in a humidified incubator for 3 h. Absorbance at 490 nm (OD490) was measured by using a Flurostar Optima microplate reader (BMG Labtech, Cary, NC, USA) to obtain the number of viable cells relative to the control population. Percentage of viability of the test compound treated cells are expressed as percentage compared to control (<0.5% DMSO). […] The selective index (SI) of the fatty acid esters of phloridzin is defined as the ratio of cytotoxicity (EC50 values) on normal HP-F cells to solid cancer HepG2, MDA-MB-231 cells (SI = EC50 on HP-F cells/EC50 on solid cancer cells). Samples with SI values greater than three were considered to have high selectivity towards cancer cells.

The test system of the next assay is THP-1 cells. In words: MTS cell proliferation assay, THP-1. It is filed as cell-based, human. As to conditions: Homo sapiens, MTS. How it is done: as §1
Assay [2] concerns HepG2 cells. In words: DNA fragmentation (apoptotic DNA ladder). It is filed as cell-based, human. To be noted: HepG2, 100 µM, 24 h, agarose gel. As for the experimental part: HepG2 (1×10^5) cells were seeded in 24-well culture plates and were allowed to adhere overnight. […] The plates were re-incubated for another 24 h. DNA fragmentation was detected using ApoTarget Quick Apoptotic DNA Ladder Detection Kit (Invitrogen, Burlington, ON, Canada) according to the manufacturer’s protocol. The principle involves detecting the internucleosomal DNA fragments formed during apoptosis. Briefly, floating dead cells and trypsinized adherent cells were collected and centrifuged at 1,000 rpm for 10 min. After washing with diluted phosphate buffered saline, the cells were lysed with 35 µL TE lysis buffer (a kit component). To the lysate, 5 µL of Enzyme A (a kit component) was added and incubated at 37°C for 10 min. Afterwards, 5 µL of Enzyme B (a kit component) was added, gently mixed and incubated at 50°C for 30 min. The DNA was precipitated with the ammonium acetate and absolute ethanol at −20°C. After centrifugation (10 min at 12,000 rpm) and air drying, the DNA pellet was dissolved in 30 µL of DNA suspension buffer. For detecting the DNA ladder, the extracted DNA samples were run on a 1.2% agarose gel containing 0.5 µg/mL gel red in Tris-Borate-EDTA (TBE) buffer. After electrophoresis, the gel image was captured using Gel Doc 100 system (Bio-Rad, Mississauga, ON, Canada).

For assay [3], the system named is caspase 3 activity of HepG2 cells. The assay is described as follows: Caspase-3 colorimetric activity assay. It is filed as cell-based, human. To be noted: HepG2, 100 µM, 24 h, compared to DMSO control. As for the experimental part: The activity of caspase 3 enzyme was measured using caspase 3 colorimetric assay kit purchased from Sigma-Aldrich. […] Cells were lysed and the protein content of cell lysate was quantified by the BCA protein assay (Thermo Fisher Scientific Inc., Ottawa, ON, Canada). Caspase-3 activity was measured in the 200 µg of cell lysate using the caspase-specific peptide substrate, DEVD (Asp-Glu-Val-Asp), conjugated to reporter p-nitroanaline (ρ-NA) molecules.

A further assay has as its target T1, human DNA topo IIα (Homo sapiens, UniProt P11388).
T1 construct: purchased TopoGEN, Inc., Columbus, OH, USA
The assay is described as follows: Topoisomerase IIα catalytic activity (pHOT1 DNA relaxation). It is filed as biochemical. To be noted: 100 µM, 4 units enzyme, 37°C 30 min. How it is done:
The topo IIα catalytic activity was monitored via electrophoresis using topoisomerase II drug screening kit (TopoGEN, Inc., Columbus, OH, USA). Briefly, 20 µL of reaction mixtures contained 0.5 M Tris-HCl, pH 8.0, 1.5 M NaCl, 100 mM MgCl2, 20 mM ATP, 300 µg BSA/mL and 5 mM dithiothreitol. Supercoiled DNA (pHOT1 DNA), supercoiled provided in the kit was determined to be ideal for this assay because it is small and easy to handle and has a large number of topo IIα recognition elements. […] The reaction was terminated by adding 2 µL of 10% sodium dodecyl sulfate (SDS) followed by digestion with 2 µL of proteinase K (50 µg/mL) at 37°C for 15 min to degrade enzyme. After adding 2 µL of loading buffer (0.25% bromophenol blue and 50% glycerol) was added to the mixture, samples were loaded onto 1% agarose gel. Electrophoresis was conducted at 66 V (2 V/cm) for 5 h in TBE buffer using Biorad Electrophoretic Gel System (Bio-Rad, Hercules, CA, USA). Supercoiled DNA (pHOT1 DNA) and relaxed DNA were included in the electrophoresis run as markers for DNA topology. Gels were then stained in 0.5 µg/mL gel red in TBE for 30 min and destained for 15 min in distilled water prior to digital image acquisition using Gel Doc 100 system (Bio-Rad, Hercules, CA, USA).
One unit of topoisomerase II activity was defined as the minimum amount of enzyme required to achieve complete relaxation of […] superhelical pHOT1 DNA in 30 min at 37°C. […] The percent of inhibition was calculated by the following formula: [drawing 1] Where Scontrol is the percent of supercoiled DNA in the control lane (without enzyme and test compounds), S0 is the percent of supercoiled DNA in the lane without test compounds and S is the percent of supercoiled DNA in the lane with test compounds and enzyme.

T1 sequence (P11388 whole entry): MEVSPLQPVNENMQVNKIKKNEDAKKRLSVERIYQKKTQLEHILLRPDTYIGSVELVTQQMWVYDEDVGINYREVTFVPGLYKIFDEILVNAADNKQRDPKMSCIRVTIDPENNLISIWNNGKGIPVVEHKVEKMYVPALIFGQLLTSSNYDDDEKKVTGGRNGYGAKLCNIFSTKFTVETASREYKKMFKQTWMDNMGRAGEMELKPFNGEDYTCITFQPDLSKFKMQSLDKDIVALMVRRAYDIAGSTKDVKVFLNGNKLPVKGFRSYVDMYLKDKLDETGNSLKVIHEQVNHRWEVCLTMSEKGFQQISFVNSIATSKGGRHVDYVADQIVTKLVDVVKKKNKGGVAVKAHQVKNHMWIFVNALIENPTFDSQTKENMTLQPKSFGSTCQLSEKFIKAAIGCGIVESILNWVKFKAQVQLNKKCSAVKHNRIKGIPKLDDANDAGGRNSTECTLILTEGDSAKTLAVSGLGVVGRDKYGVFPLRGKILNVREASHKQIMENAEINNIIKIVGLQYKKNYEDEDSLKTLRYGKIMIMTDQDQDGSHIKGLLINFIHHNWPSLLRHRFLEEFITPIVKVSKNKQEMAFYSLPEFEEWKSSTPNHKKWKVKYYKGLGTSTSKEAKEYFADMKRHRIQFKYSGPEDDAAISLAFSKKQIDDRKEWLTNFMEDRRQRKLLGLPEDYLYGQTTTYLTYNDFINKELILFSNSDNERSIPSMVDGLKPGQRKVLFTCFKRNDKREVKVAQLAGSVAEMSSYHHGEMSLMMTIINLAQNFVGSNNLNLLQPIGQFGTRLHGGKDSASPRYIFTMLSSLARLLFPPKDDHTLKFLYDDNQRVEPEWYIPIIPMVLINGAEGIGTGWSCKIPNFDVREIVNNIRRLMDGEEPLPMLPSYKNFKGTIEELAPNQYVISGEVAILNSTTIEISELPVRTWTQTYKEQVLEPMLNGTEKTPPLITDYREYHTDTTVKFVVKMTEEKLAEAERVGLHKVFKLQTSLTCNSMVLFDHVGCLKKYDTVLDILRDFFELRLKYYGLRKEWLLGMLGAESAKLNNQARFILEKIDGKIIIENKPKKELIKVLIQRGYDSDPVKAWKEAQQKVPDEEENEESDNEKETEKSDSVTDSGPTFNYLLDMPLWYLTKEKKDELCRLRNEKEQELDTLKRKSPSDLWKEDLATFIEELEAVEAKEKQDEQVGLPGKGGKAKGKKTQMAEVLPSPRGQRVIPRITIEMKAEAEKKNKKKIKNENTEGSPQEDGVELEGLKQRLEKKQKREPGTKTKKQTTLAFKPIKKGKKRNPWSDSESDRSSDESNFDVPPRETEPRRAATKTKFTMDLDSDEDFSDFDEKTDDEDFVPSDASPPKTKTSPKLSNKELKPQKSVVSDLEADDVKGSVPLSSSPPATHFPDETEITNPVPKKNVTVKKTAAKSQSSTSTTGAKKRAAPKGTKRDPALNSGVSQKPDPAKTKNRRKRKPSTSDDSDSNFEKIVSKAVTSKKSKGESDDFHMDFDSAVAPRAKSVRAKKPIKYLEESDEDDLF

The EC50 is the concentration needed to bring the measured effect to its halfway point. For the compound `O=C(CCc1ccc(O)cc1)c1c(O)cc(O)cc1O` [Phloretin], the EC50 in the assay on HepG2 cells [1] (HepG2, 3 h) was > 100 µM; in the assay with HepG2 cells [1] (HepG2, 6 h) it was > 100 µM; with HepG2 cells [1] (HepG2, 12 h) it was > 100 µM; in the assay with HepG2 cells [1] (HepG2, 18 h), > 100 µM; in the assay on HepG2 cells [1] (HepG2, 24 h) it was 97.2 µM; with MDA-MB-231 cells (MDA-MB-231, 3 h), > 100 µM. The EC50 in the assay on MDA-MB-231 cells (MDA-MB-231, 6 h) was > 100 µM; in the assay with MDA-MB-231 cells (MDA-MB-231, 12 h), > 100 µM; with MDA-MB-231 cells (MDA-MB-231, 18 h), > 100 µM; in the assay with MDA-MB-231 cells (MDA-MB-231, 24 h), > 100 µM; in the assay with THP-1 cells (THP-1, 3 h) it was 73.5 ± 5.2 µM; in the assay with THP-1 cells (THP-1, 6 h), 64.1 ± 5.4 µM. Besides, the concentration giving a half-maximal response (EC50) is 60.1 ± 4.2 µM with THP-1 cells (THP-1, 12 h); 56.9 ± 3 µM in the assay on THP-1 cells (THP-1, 18 h); 39.6 ± 1.7 µM with THP-1 cells (THP-1, 24 h). In the assay with HepG2 cells [2], the “internucleosomal DNA fragmentation” value was “only intact genomic DNA”. Moreover, in assay [3], the “caspase 3 activity” value is “enhanced caspase 3 activity but significantly (P<0.001) lower than fatty acid esters of phloridzin or the drug”. Also, on human DNA topo IIα, the “catalytic activity of human DNA topo IIα (pHOT DNA relaxation)” value is listed as “inhibited catalytic activity”.
As for `O=C(CCc1ccc(O)cc1)c1c(O)cc(O)cc1O[C@@H]1O[C@H](CO)[C@@H](O)[C@H](O)[C@H]1O` [Phloridzin, phloretin 2′-O-glucoside], the concentration giving a half-maximal response (EC50) with HepG2 cells [1] (HepG2, 3 h) is > 100 µM; in the assay with HepG2 cells [1] (HepG2, 6 h), > 100 µM; with HepG2 cells [1] (HepG2, 12 h), > 100 µM; with HepG2 cells [1] (HepG2, 18 h), > 100 µM; in the assay with HepG2 cells [1] (HepG2, 24 h), > 100 µM; in the assay on MDA-MB-231 cells (MDA-MB-231, 3 h) it was > 100 µM. The 50% effective concentration (EC50) with MDA-MB-231 cells (MDA-MB-231, 6 h) is > 100 µM; in the assay with MDA-MB-231 cells (MDA-MB-231, 12 h) it was > 100 µM; in the assay on MDA-MB-231 cells (MDA-MB-231, 18 h) it was > 100 µM; in the assay on MDA-MB-231 cells (MDA-MB-231, 24 h), > 100 µM; with THP-1 cells (THP-1, 3 h), > 100 µM; in the assay on THP-1 cells (THP-1, 6 h) it was > 100 µM. Also, the EC50 in the assay on THP-1 cells (THP-1, 12 h) was > 100 µM; in the assay on THP-1 cells (THP-1, 18 h), > 100 µM; with THP-1 cells (THP-1, 24 h), > 100 µM. In the assay with HepG2 cells [2], the “internucleosomal DNA fragmentation” value was “only intact genomic DNA”. Further, the “caspase 3 activity” value in assay [3] was “enhanced caspase 3 activity but significantly (P<0.001) lower than fatty acid esters of phloridzin or the drug”. The “catalytic activity of human DNA topo IIα (pHOT DNA relaxation)” value on human DNA topo IIα was “inhibited catalytic activity”.
